Measurements from patent US8362000B2, “Azetidinyl diamides as monoacylglycerol lipase inhibitors” (Janssen Pharmaceutica NV, priority 2009, dated 2013).
Residue numbers refer to the chain shown, from its start. Where two headings read alike, the source gives them in different places.

What was measured:
[1] = molecular target: T1, purified wild type MGL (wt-MGLL 6H-11-313) (Homo sapiens, UniProt Q99685)
T1 sequence (Q99685 1-303): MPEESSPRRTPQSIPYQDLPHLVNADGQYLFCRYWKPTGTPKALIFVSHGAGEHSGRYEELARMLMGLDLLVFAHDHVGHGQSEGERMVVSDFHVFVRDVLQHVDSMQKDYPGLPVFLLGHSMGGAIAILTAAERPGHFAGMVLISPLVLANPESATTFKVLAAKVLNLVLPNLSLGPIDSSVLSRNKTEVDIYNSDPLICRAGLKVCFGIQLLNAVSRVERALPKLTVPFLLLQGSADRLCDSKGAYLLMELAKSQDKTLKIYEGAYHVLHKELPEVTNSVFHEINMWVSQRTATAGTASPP

[2] = molecular target: T2, mutant MGL (Homo sapiens, UniProt Q99685, L169S/L176S); assay: MGL ThermoFluor assay - mutant; assay type: binding
T2 sequence (Q99685 1-303 L169S/L176S): T1 sequence (Q99685 1-303) with L169S, L176S

[3] = ThermoFluor concentration-response, read-out: MGL mutant ThermoFluor Kd
[4] = ThermoFluor thermal stability binding assay, read-out: MGL mutant ThermoFluor Kd
[5] = ThermoFluor, compound concentration measured by qNMR, read-out: MGL mutant ThermoFluor qKd (μM) (using qNMR conc.)

Row | SMILES | IC50 [1] [nM] | Kd [2, 3] [µM] | other results
1 | Cc1nc2cc(C(=O)N3CC(N4CCN(C(=O)c5ccccc5)CC4)C3)ccc2n1C1CCCCC1 [Cpd 37, 1-Cyclohexyl-2-methyl-5-({3-[4-(phenylcarbonyl)piperazin-1-yl]azetidin-1-yl}carbonyl)-1H-benzimidazole] | 5990 | 0.1 | –
2 | CC1CN(C(=O)c2nccs2)CCN1C1CN(C(=O)c2ccc(Cc3ccccc3)cc2)C1 (stereo not shown) [Cpd 47, 1-{1-[(4-Benzylphenyl)carbonyl]azetidin-3-yl}-2-methyl-4-(1,3-thiazol-2-ylcarbonyl)piperazine] | 129 | 0.0909 | –
3 | O=C(c1ccc(-c2ccc(C(F)(F)F)cc2)cc1)N1CC(N2CCN(C(=O)c3nccs3)CC2)C1 [Cpd 150, 1-(1,3-Thiazol-2-ylcarbonyl)-4-(1-{[4′-(trifluoromethyl)biphenyl-4-yl]carbonyl}azetidin-3-yl)piperazine] | < 5 | 0.0033 | –
4 | O=C(c1ccc(-c2cccc(C(F)(F)F)c2)cc1)N1CC(N2CCN(C(=O)c3nccs3)CC2)C1 [Cpd 237, 1-(1,3-Thiazol-2-ylcarbonyl)-4-(1-{[3′-(trifluoromethyl)biphenyl-4-yl]carbonyl}azetidin-3-yl)piperazine] | < 5 | – | Kd [2, 4]: 0.001 µM
5 | O=C(c1ccccc1)N1CCN(C2CN(C(=O)c3ccc(-c4cccc(C(F)(F)F)c4)cc3Cl)C2)CC1 [Cpd 252, 1-(1-{[3-Chloro-3′-(trifluoromethyl)biphenyl-4-yl]carbonyl}azetidin-3-yl)-4-(phenylcarbonyl)piperazine] | 80.8 | – | Kd [2, 4]: 0.05 µM
6 | Cc1ccc2c(C(F)(F)F)c(C(=O)N3CC(N4CCN(C(=O)c5ccccc5)CC4)C3)sc2c1 [Cpd 510, 1-(1-{[6-Methyl-3-(trifluoromethyl)-1-benzothiophen-2-yl]carbonyl}azetidin-3-yl)-4-(phenylcarbonyl)piperazine] | 181 | 0.068 | –
7 | CC(C)=Cc1c(C(=O)N2CC(N3CCN(C(=O)c4ccccc4)CC3)C2)sc2cc(C(F)(F)F)ccc12 [Cpd 511] | 240 | – | Kd [2, 4]: 0.002 µM
8 | O=C(c1ccccc1)N1CCN(C2CN(C(=O)c3sc4cc(Cl)ccc4c3C(F)(F)F)C2)CC1 [Cpd 512] | 260 | 0.05 | –
9 | O=C(c1ccccc1)N1CCN(C2CN(C(=O)c3sc4cc(F)ccc4c3C3CCC3)C2)CC1 [Cpd 513] | 371 | 0.009 | –
10 | O=C(c1ccccc1)N1CCN(C2CN(C(=O)c3ccc(Oc4cccc(C(F)(F)F)c4)nc3)C2)CC1 [Cpd 514] | 454 | 0.727 | –
11 | O=C(c1ccccc1)N1CCN(C2CN(C(=O)c3sc4cc(C(F)(F)F)ccc4c3C3CC3)C2)CC1 [Cpd 515] | 455 | – | Kd [2, 4]: 0.011 µM
12 | Cc1c(C(=O)N2CC(N3CCN(C(=O)c4ccccc4)CC3)C2)sc2cc(F)ccc12 [Cpd 516] | 465 | – | Kd [2, 4]: 0.04 µM
13 | O=C(c1ccccc1)N1CC(N2CCN(C(=O)c3cc4cc(C(F)(F)F)ccc4s3)C(c3ccccc3)C2)C1 (stereo not shown) [Cpd 517] | 1340 | 0.05 | –
14 | O=C(c1ccccc1)N1CCN(C2CN(C(=O)c3ccc(Oc4cccc(Cl)c4)nc3)C2)CC1 [Cpd 519, 1-(1-{[6-(3-Chlorophenoxy)pyridin-3-yl]carbonyl}azetidin-3-yl)-4-(phenylcarbonyl)piperazine] | 1620 | 0.962 | –
15 | O=C(c1ccccc1)N1CCN(C2CN(C(=O)c3ccc(Oc4ccc(Cl)cn4)cc3)C2)CC1 [Cpd 520] | 2030 | 2 | –
16 | Cc1nc2cc(C(=O)N3CCN(C4CN(C(=O)c5ccccc5)C4)CC3)ccc2n1C1CCCCC1 [Cpd 523] | 3130 | 0.686 | –
17 | O=C(c1ccccc1)N1CCN(C2CN(C(=O)c3ccc(Oc4ccccn4)c(Cl)c3)C2)CC1 [Cpd 525] | 6990 | 2.5 | –
18 | COc1cccc2c(C)c(C(=O)N3CC(N4CCN(C(=O)c5ccccc5)CC4)C3)[nH]c12 [Cpd 526] | 8100 | 4.98 | –
19 | O=C(c1ccccc1)N1CCN(C2CN(C(=O)c3ccc(Oc4cccnc4)cc3)C2)CC1 [Cpd 527] | 8570 | 10 | –
20 | O=C(c1ccccc1)N1CCN(C2CN(C(=O)c3ccc(F)c(Cc4ccc(C(F)(F)F)cc4)c3)C2)CC1 [Cpd 563] | 2490 | 2.11 | –
21 | O=C(c1ccccc1)N1CCN(C2CN(C(=O)c3ccc(CS(=O)(=O)c4cccc(C(F)(F)F)c4)cc3)C2)CC1 [Cpd 564] | 5400 | 10 | –
22 | Cc1cc(-n2ccc3cc(C(=O)N4CC(N5CCN(C(=O)c6ccccc6)CC5)C4)ccc32)ccc1C#N [Cpd 566, 2-Methyl-4-[5-({3-[4-(phenylcarbonyl)piperazin-1-yl]azetidin-1-yl}carbonyl)-1H-indol-1-yl]benzonitrile] | 14 | – | Kd [2, 5]: 0.031 µM

Row | SMILES | IC50 [1] [nM] | Kd [2, 3] [µM] | other results
23 | O=C(c1ccccc1)N1CCN(C2CN(C(=O)c3ccc4c(ccn4-c4ccc(Cl)c(F)c4)c3)C2)CC1 [Cpd 568] | 72 | – | Kd [2, 5]: 0.099 µM
24 | O=C(c1ccccc1)N1CCN(C2CN(C(=O)c3ccc4c(cnn4-c4ccc(C(F)(F)F)cc4)c3)C2)CC1 [Cpd 575, 5-({3-[4-(Phenylcarbonyl)piperazin-1-yl]azetidin-1-yl}carbonyl)-1-[4-(trifluoromethyl)phenyl]-1H-indazole] | 51 | – | Kd [2, 5]: 0.083 µM
25 | O=C(c1ccccc1)N1CCN(C2CN(C(=O)c3ccc4c(cnn4-c4cccc(OC(F)(F)F)c4)c3)C2)CC1 [Cpd 576, 5-({3-[4-(Phenylcarbonyl)piperazin-1-yl]azetidin-1-yl}carbonyl)-1-[3-(trifluoromethoxy)phenyl]-1H-indazole] | 51 | – | Kd [2, 5]: 0.088 µM
26 | O=C(c1ccccc1)N1CCN(C2CN(C(=O)c3ccc4c(ccn4-c4cc(F)ccc4F)c3)C2)CC1 [Cpd 578] | 63 | – | Kd [2, 5]: 0.195 µM
27 | Cc1cn(-c2cccc(F)c2)c2ccc(C(=O)N3CC(N4CCN(C(=O)c5ccccc5)CC4)C3)cc12 [Cpd 583] | 104 | – | Kd [2, 5]: 0.051 µM
28 | O=C(c1ccccc1)N1CCN(C2CN(C(=O)c3ccc4c(ccn4-c4ccc(C(F)(F)F)cn4)c3)C2)CC1 [Cpd 586, 5-({3-[4-(Phenylcarbonyl)piperazin-1-yl]azetidin-1-yl}carbonyl)-1-[5-(trifluoromethyl)pyridin-2-yl]-1H-indole] | 112 | – | Kd ([2]; ThermoFluor, compound concentration measured by qNMR, read-out: MGL mutant ThermoFluor qKd (using qNMR conc.)): 0.086 µM
29 | O=C(c1ccccc1)N1CCN(C2CN(C(=O)c3ccc4c(cnn4-c4ccc(F)c(F)c4)c3)C2)CC1 [Cpd 590] | 186 | – | Kd [2, 5]: 0.182 µM
30 | O=C(c1ccccc1)N1CCN(C2CN(C(=O)c3sc4cc(C(F)(F)F)ccc4c3-c3ccccc3)C2)CC1 [Cpd 591] | 212 | – | Kd [2, 4]: 0.007 µM
31 | O=C(c1ccccc1)N1CCN(C2CN(C(=O)c3ccc4nc(-c5ccccc5)sc4c3)C2)CC1 [Cpd 592, 2-Phenyl-6-({3-[4-(phenylcarbonyl)piperazin-1-yl]azetidin-1-yl}carbonyl)-1,3-benzothiazole] | 253 | 0.5 | –
32 | Cn1cc(-c2cccc(C(F)(F)F)c2)c2ccc(C(=O)N3CC(N4CCN(C(=O)c5ccccc5)CC4)C3)cc21 [Cpd 593] | 311 | 0.01 | –
33 | Cc1ccc(-n2nc(C)c(C(=O)N3CC(N4CCN(C(=O)c5nccs5)CC4)C3)n2)cc1 [Cpd 1214] | 209 | – | –
34 | Cc1nn(-c2ccc(Cl)cc2)nc1C(=O)N1CC(N2CCN(C(=O)c3nccs3)CC2)C1 [Cpd 1218] | 222 | – | –
35 | O=C(c1ccc2nc(-c3ccccc3)oc2c1)N1CCN(C2CN(C(=O)c3cscn3)C2)CC1 [Cpd 1275] | 1720 | – | –
36 | O=C(c1nccs1)N1CCN(C2CN(C(=O)c3cnn(-c4ccccc4)c3-c3ccccc3)C2)CC1 [Cpd 1297] | 3310 | – | –
37 | Cc1nn(-c2ccc(F)cc2)c(C)c1C(=O)N1CC(N2CCN(C(=O)c3nccs3)CC2)C1 [Cpd 1301] | 4610 | – | –
38 | Cn1cc(-c2ccc(F)cc2)c2ccc(C(=O)N3CC(N4CCN(C(=O)c5nccs5)CC4)C3)cc21 [Cpd 1318, 3-(4-Fluorophenyl)-1-methyl-6-({3-[4-(1,3-thiazol-2-ylcarbonyl)piperazin-1-yl]azetidin-1-yl}carbonyl)-1H-indole] | < 5 | – | –
39 | Cc1c(-c2ccccc2)oc2c(C(=O)N3CCN(C4CN(C(=O)c5cscn5)C4)CC3c3ccccc3)cccc2c1=O (stereo not shown) [Cpd 1436] | > 16700 | – | –
40 | O=C(c1cscn1)N1CCN(C2CN(C(=O)c3nc4ccc(F)cc4[nH]3)C2)CC1 [Cpd 1442] | > 16700 | – | –
41 | Cc1c(-c2ccccc2)oc2c(C(=O)N3CCN(C4CN(C(=O)c5ccccc5)C4)CC3c3ccccc3)cccc2c1=O (stereo not shown) [Cpd 1489] | > 16700 | – | –
42 | O=C(c1ccc(S(=O)(=O)c2cccc(C(F)(F)F)c2)cc1)N1CC(N2CCN(C(=O)C(F)(F)F)CC2)C1 [Cpd 1493] | > 16700 | – | –
43 | O=C(c1ccc(CS(=O)(=O)c2cccc(C(F)(F)F)c2)cc1)N1CC(N2CCN(C(=O)C(F)(F)F)CC2)C1 [Cpd 1498] | > 16700 | – | –
44 | Cc1nc2cc(C(=O)N3CC(N4CCN(C(=O)c5cscn5)CC4)C3)ccc2n1C1CCC(F)(F)CC1 [Cpd 1506] | > 16700 | – | –
